US20080076751A1, “Azetidinone Derivatives and Methods of Use Thereof” (priority 2006, published 2008)

biological target: T1, human CaV3.2 (Homo sapiens, UniProt O95180); assay: IonWorks screen for hCaV3.2 (T-type calcium current, voltage clamp); assay type: cell-based; settings: IonWorks HT, HEK cells, 10 min incubation, pulse 10, 8-point curve; read-out: IW hCav3 2 IC50
T1 construct: expressed in transfected cells
Excerpt: Functional evaluation of voltage-gated ion channels can be used to determine potency and/or single concentration efficacy of the Azetidinone Derivatives of the present invention. Two different methodologies can be used to measure ion currents: the lonWorks HT (Molecular Devices, Sunnyvale, Calif.) a moderate throughput voltage clamp screening platform that utilizes 96-well compound plates and conventional whole cell patch clamp for lower throughput, higher fidelity determinations.
HEK cells are transiently transfected and then selected for stable heterologous expression of different channel proteins of interest. Calcium channel cell lines expressed a resting potassium current, human Kir2.1, and the pore forming α-subunit of voltage-gated calcium channels. In the case of CaV2.1 cells the auxiliary subunit, β2a, is also expressed. Calcium channel lines that are used to generate the data will express either human CaV3.2, rat CaV3.2 or human CaV2.1. The human heart sodium channel, hNaV1.5, are stably expressed in CHO cells.
Cell lines can be grown at 37° C. in humidified incubators, equilibrated with 95% air/5% CO2. CHO cells can be grown in Ham's F-12 medium. HEK cells can be grown in DMEM. All media are supplemented with 10% heat-inactivated fetal bovine serum, penicillin, streptomycin and appropriate selection antibiotics (zeocin, geneticin and/or hygromycin). Cells are passaged when 80% confluent or less.
IonWorks Screen for hCaV3.2
The extracellular buffer for experiments using this instrument contained the following (mM) (NaCl 125, HEPES 10, KCl 5.4, CaCl2 1.8, MgCl2 1.8, 0.2 BaCl2 pH 7.35). The lonWorks uses amphotericin to gain electrical access to the cell interior. The internal solution contained (mM concentrations): 130 K-gluconate, 20 KCl, 5 HEPES-KOH (pH 7.25), 2 CaCl2, 1 MgCl2. Amphotericin added at 5 mg in 65 mL when present (in 650 μL DMSO). All internal and external solutions for this experiment contain 1% DMSO. Cells were acutely trypsinized from a T-75 flask and resuspended in extracellular buffer at a density of 2×10^5 cells/mL.
Experiments were performed at room temperature. Transmembrane potential was held at −100 mV for 5 seconds prior to running the voltage protocol. During this time leak currents were measured during a step to −110 mV (200 milliseconds). T-type calcium currents were activated with a 250 millisecond step to −20 mV. This depolarization step was repeated for a total of 10 pulses with an interpulse interval of 1 second. Data were excluded if the following acceptance criteria were not met: total resistance for the pre-compound scan>65 MΩ, pre-compound current>250 pA, post compound total resistance>50 MΩ.
T-type currents were measured as the peak inward current minus the current at the end of the 250 msec step to −20 mV. After the recoding configuration was established there was a pre-compound measurement of current amplitude. Compound was added as a 3× solution containing 1% DMSO. After incubation with compound for 10 minutes currents were measured again. The current amplitude after compound addition was divided by the pre-compound current for pulse 10 to determine the fraction of current remaining after compound addition. For each compound, 8-point concentration-effect relationships were measured with ½ log serial dilutions.

T1 sequence (O95180 whole entry): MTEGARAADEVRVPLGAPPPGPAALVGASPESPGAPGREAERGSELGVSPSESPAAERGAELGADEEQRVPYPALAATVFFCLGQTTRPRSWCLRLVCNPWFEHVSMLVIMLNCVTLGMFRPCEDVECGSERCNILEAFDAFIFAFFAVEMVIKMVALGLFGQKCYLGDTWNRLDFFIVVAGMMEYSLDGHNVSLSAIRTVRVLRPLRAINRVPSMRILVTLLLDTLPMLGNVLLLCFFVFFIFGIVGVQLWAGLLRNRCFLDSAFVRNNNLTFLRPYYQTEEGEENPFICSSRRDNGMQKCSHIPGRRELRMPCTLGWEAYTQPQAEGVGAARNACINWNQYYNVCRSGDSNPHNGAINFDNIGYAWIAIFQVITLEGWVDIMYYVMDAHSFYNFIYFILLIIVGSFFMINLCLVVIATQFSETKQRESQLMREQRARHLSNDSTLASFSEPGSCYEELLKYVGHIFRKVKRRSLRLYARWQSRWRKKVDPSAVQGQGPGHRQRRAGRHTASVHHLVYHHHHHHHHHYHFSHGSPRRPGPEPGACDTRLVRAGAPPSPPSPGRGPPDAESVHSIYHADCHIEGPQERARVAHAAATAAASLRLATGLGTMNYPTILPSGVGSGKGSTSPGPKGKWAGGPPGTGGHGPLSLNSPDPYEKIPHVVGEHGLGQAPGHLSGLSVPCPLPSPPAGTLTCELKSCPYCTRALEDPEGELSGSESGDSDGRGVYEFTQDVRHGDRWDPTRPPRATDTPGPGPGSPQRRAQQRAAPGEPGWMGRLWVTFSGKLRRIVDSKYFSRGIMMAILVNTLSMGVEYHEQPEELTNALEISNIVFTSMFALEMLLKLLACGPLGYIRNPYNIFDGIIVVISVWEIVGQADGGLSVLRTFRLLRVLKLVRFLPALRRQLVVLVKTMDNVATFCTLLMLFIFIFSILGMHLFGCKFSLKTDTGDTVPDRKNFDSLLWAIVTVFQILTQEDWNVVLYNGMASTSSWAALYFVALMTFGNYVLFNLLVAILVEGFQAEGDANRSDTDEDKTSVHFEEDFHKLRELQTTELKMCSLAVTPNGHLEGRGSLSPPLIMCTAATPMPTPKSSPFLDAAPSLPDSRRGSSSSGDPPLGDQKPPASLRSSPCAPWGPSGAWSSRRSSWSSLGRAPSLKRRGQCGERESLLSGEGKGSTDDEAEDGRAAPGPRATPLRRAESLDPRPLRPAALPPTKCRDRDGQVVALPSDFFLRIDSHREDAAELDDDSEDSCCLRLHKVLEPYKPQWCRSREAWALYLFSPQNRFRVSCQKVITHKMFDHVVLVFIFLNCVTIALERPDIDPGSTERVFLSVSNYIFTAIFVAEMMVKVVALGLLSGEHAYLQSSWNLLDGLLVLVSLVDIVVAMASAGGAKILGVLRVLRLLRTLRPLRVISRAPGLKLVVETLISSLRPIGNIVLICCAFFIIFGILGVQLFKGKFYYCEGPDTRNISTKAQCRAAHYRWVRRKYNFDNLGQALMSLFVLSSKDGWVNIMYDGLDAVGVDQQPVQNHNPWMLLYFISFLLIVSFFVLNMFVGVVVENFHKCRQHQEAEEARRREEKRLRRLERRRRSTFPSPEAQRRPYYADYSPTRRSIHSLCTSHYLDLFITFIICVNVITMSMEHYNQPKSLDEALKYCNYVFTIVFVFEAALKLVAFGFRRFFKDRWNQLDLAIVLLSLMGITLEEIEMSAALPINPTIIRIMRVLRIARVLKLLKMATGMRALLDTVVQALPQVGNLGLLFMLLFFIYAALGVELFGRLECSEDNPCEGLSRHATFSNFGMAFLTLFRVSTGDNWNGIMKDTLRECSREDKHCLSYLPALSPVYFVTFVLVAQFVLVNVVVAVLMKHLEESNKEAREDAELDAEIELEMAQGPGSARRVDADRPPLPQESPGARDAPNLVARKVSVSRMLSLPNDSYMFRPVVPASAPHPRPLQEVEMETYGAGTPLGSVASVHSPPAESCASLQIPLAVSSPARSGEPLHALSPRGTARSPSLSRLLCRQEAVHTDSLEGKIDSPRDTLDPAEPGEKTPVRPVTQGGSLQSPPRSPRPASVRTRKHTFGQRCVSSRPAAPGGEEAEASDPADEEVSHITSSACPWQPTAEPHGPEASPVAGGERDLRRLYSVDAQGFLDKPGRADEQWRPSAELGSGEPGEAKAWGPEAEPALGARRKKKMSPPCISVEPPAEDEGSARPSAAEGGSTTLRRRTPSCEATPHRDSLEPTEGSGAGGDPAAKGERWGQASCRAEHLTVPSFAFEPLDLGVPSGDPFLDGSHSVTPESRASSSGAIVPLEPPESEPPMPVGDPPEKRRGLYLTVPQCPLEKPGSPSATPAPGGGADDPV

Compound | IC50
CCC(C)[C@H](NC(=O)N1CCC2(CC1)C(=O)N(c1ccc(F)c(Cl)c1)C2c1ccc(-c2cccnc2)cn1)C(=O)OC (stereo partly shown) | 577 nM
CCC(C)[C@H](NC(=O)N1CCC2(CC1)C(=O)N(c1ccc(F)c(Cl)c1)C2c1ccc(-c2ccncc2)cn1)C(=O)OC (stereo partly shown) | 634 nM
O=C(Nc1cc(F)cc(F)c1)N1CCC2(CC1)C(=O)N(c1ccccn1)C2c1ccccn1 (stereo not shown) | 1160 nM
O=C(Nc1cccnc1)N1CCC2(CC1)C(=O)N(c1cccc(Cl)c1)C2c1ccccn1 (stereo not shown) | 1120 nM
C[C@@H](NC(=O)N1CCC2(CC1)C(=O)N(c1cccc(F)c1)C2c1ccc(Cl)cc1)c1ccc(F)cc1 (stereo partly shown) | 675 nM
O=C(NCc1cccc(F)c1)N1CCC2(CC1)C(=O)N(c1cccc(F)c1)C2c1ccc(Cl)cc1 (stereo not shown) | 538 nM
C[C@@H](NC(=O)N1CCC2(CC1)C(=O)N(c1cccc(F)c1)C2c1ccc(Cl)cc1)c1ccccc1 (stereo partly shown) | 351 nM
CC(C)CN1C(=O)C2(CCN(C(=O)N[C@@H](C)c3ccc(F)cc3)CC2)C1c1ccc(Cl)cc1 (stereo partly shown) | 1830 nM
C[C@H](NC(=O)N1CCC2(CC1)C(=O)N(c1ccccc1S(C)(=O)=O)C2c1ccc(Cl)cc1)c1ccc(F)cc1 (stereo partly shown) | 611 nM
CC[C@H](C)[C@H](NC(=O)N1CCC2(CC1)C(=O)N(c1cccc(F)c1)C2c1ccc(Cl)cc1)C(N)=O (stereo partly shown) | 965 nM
COC(=O)[C@H](C)NC(=O)N1CCC2(CC1)C(=O)N(c1cccc(F)c1)C2c1ccc(Cl)cc1 (stereo partly shown) | 827 nM
C[C@H](NC(=O)N1CCC2(CC1)C(=O)N(c1cncnc1)C2c1ccc(Cl)cc1)c1ccc(F)cc1 (stereo partly shown) | 2330 nM
CC(NC(=O)N1CCC2(CC1)C(=O)N(c1cccc(F)c1)C2c1ccc(Cl)cc1)c1ccccn1 (stereo not shown) | 2170 nM
CC(NC(=O)N1CCC2(CC1)C(=O)N(c1cccc(F)c1)C2c1ccc(Cl)cc1)c1ccncc1 (stereo not shown) | 694 nM
CC(NC(=O)N1CCC2(CC1)C(=O)N(c1cccc(F)c1)C2c1ccc(Cl)cc1)c1cccnc1 (stereo not shown) | 2460 nM
O=C(NCc1ccccn1)N1CCC2(CC1)C(=O)N(c1cccc(F)c1)C2c1ccc(Cl)cc1 (stereo not shown) | 1330 nM
C[C@H](NC(=O)N1CCC2(CC1)C(=O)N(c1cncnc1)C2c1cccnc1)c1ccc(F)cc1 (stereo partly shown) | 2590 nM

Compounds with a lower IC50, results first:

IC50 | Compound
100 nM | CCC(C)[C@H](NC(=O)N1CCC2(CC1)C(=O)N(c1ccc(F)c(Cl)c1)C2c1ccc(Br)cn1)C(=O)OC (stereo partly shown)
84 nM | CCC(C)[C@H](NC(=O)N1CCC2(CC1)C(=O)N(c1ccc(F)c(Cl)c1)C2c1ccc(-c2ccccc2)cn1)C(=O)OC (stereo partly shown)
136 nM | C[C@H](NC(=O)N1CCC2(CC1)C(=O)N(c1ccc(F)c(Cl)c1)C2c1ccc(Br)cn1)c1ccc(F)cc1 (stereo partly shown)
52.5 nM | O=C(Nc1cc(F)cc(F)c1)N1CCC2(CC1)C(=O)N(c1ccc(F)c(Cl)c1)C2c1ccc(Br)cn1 (stereo not shown)
45 nM | CC[C@H](C)[C@H](NC(=O)N1CCC2(CC1)C(=O)N(c1cccc(F)c1)C2c1ccc(Cl)cc1)C(=O)OC(C)C (stereo partly shown)
251 nM | COC(=O)[C@H](COC(C)(C)C)NC(=O)N1CCC2(CC1)C(=O)N(c1cccc(F)c1)C2c1ccc(Cl)cc1 (stereo partly shown)
224 nM | CC[C@H](NC(=O)N1CCC2(CC1)C(=O)N(c1cccc(F)c1)C2c1ccc(Cl)cc1)c1ccccc1 (stereo partly shown)
139 nM | C[C@H](NC(=O)N1CCC2(CC1)C(=O)N(c1cccc(F)c1)C2c1ccc(Cl)cc1)c1ccccc1 (stereo partly shown)
35 nM | CC[C@H](C)[C@@H](C#N)NC(=O)N1CCC2(CC1)C(=O)N(c1cccc(F)c1)C2c1ccc(Cl)cc1 (stereo partly shown)
82 nM | C[C@H](NC(=O)N1CCC2(CC1)C(=O)N(c1cccc(F)c1)C2c1ccc(Cl)cc1)c1ccc(F)cc1 (stereo partly shown)
94 nM | CS(=O)(=O)c1ccccc1N1C(=O)C2(CCN(C(=O)Nc3cc(F)cc(F)c3)CC2)C1c1ccc(Cl)cc1 (stereo not shown)
269 nM | O=C(NCc1ccccc1F)N1CCC2(CC1)C(=O)N(c1cccc(F)c1)C2c1ccc(Cl)cc1 (stereo not shown)
182 nM | CC[C@H](C)[C@H](NC(=O)N1CCC2(CC1)C(=O)N(c1cccc(F)c1)C2c1ccc(Cl)cc1)C(=O)NC (stereo partly shown)
109 nM | CC[C@H](C)[C@H](NC(=O)N1CCC2(CC1)C(=O)N(c1ccccc1S(C)(=O)=O)C2c1ccc(Cl)cc1)C(=O)OC (stereo partly shown)
